# Test results: patent US20200405687A1, “METHODS FOR THE TREATMENT OF INFECTION” (Corbus Pharmaceuticals, Inc., priority 2016, published 2020)
# Experiments:
# Pseudomonas aeruginosa = Pseudomonas aeruginosa agarose bead lung infection in WT C57BL/6J mice (Example 1); type: in vivo
# Procedure: Ajulemic acid (AJA) was tested in mice inoculated with Pseudomonas aeruginosa to determine its effect on treatment of infection, including the ability to promote bacterial clearance. Mice (WT, C57BL/6J) were inoculated with Pseudomonas aeruginosa agarose beads in the lungs and then treated twice daily with oral doses of ajulemic acid at 1 mg/kg and 5 mg/kg. Ajulemic acid was then administered by gavage at 1 mg/kg or 5 mg/kg dose BID in 2% methylcellulose for 10 days starting 24 hours after establishing chronic Pseudomonas aeruginosa infection. WT animals in this study were followed daily for clinical score and weights for 10 days. At Day 10, animals were euthanized and evaluated for bacteria load (colony forming units, cfus), total bronchoalveolar lavage (BAL), white blood cell counts (WBCs), and differential cell counts.
# The study was conducted with 40 wild type female C57BL/6J mice. Each group of mice was inoculated with 10^5 colony forming units (CFUs) of Pseudomonas aeruginosa (PAM 5715, a CF clinical isolate). One day post infection, mice were given either 2% methylcellulose, 2% methylcellulose+1 mg/kg ajulemic acid, or 2% methylcellulose+5 mg/kg ajulemic acid BID. Animals were followed for 10 days. At day 10, animals were euthanized for BAL CFUs, differentials, total white blood cell count with fluid, and pellet saved for future studies.
# Treatment and control groups include the following Pseudomonas aeruginosa infected controls treated with 2% methylcellulose, Pseudomonas aeruginosa infected animals treated with 1 mg/kg BID AJA in 2% methylcellulose, Pseudomonas aeruginosa infected animals treated with 5 mg/kg BID AJA in 2% methylcellulose, and untreated baseline controls.
# [1] = Phase 2 study in subjects having cystic fibrosis, acute pulmonary exacerbations and safety (Example 4); type: in vivo, human
# Procedure: An international, multi-center, double-blinded, randomized, placebo-controlled Phase 2 study was performed in subjects having cystic fibrosis. The primary objective of the study was to test safety and tolerability of ajulemic acid in adults with cystic fibrosis who had forced expiratory volume in 1 second (FEV1) percent predicted at least 40% predicted, without regard to their CFTR mutation, infecting pathogen, or baseline treatment. Events of special interest included acute exacerbations requiring intravenous antibiotic treatment or treatment with new antibiotics.
# Eighty-five subjects on stable standard-of-care medications were dosed with ajulemic acid at 21 cystic fibrosis centers in the U.S. and Europe and treated with ajulemic acid daily for a period of 84 days, with a follow-up period of 28 days. During the first part of the study (weeks 1-4) subjects were randomized to the following treatment groups: placebo (n=35), 1 mg/day ajulemic acid (n=26) or 5 mg/day ajulemic acid (n=24). During the second part of the study (weeks 5-13), subjects given ajulemic acid in the first part of the study were re-randomized to ajulemic acid 20 mg once per day (n=31) or ajulemic acid 20 mg twice a day (n=30) with 11 subjects from the placebo group also being randomized to the ajulemic acid arms. The last part of the study was a 28 day follow up period post treatment.
# [2] = 1 mg/day, 5 mg/day, or 20 mg/day, respective treatment periods
# [3] = across doses, compared to placebo
structure (smiles),measurement,setting,value
"CCCCCCC(C)(C)c1cc(O)c2c(c1)OC(C)(C)[C@@H]1CC=C(C(=O)O)C[C@@H]21 [ajulemic acid, (6aR,10aR)-1-hydroxy-6,6-dimethyl-3-(2-methyl-2-octanyl)-6a,7,10,10a-tetrahydro-6H-benzo[c]chromene-9-carboxylic acid]",white blood cell response,"Pseudomonas aeruginosa; 1 mg/kg and 5 mg/kg BID oral, day 3, relative to controls infected or not infected",elevated
same,weight profiles (body weight maintenance),"Pseudomonas aeruginosa; 1 mg/kg or 5 mg/kg BID, 10 days",no real adverse effect
same,bacterial load of Pseudomonas aeruginosa (bacterial CFUs in the lungs),"Pseudomonas aeruginosa; 5 mg/kg BID oral, day 10",effective at decreasing the overall number of bacterial CFUs in the lungs
same,treatment of infection compared with vehicle,Pseudomonas aeruginosa; WT C57BL/6J mice,more efficient at treating infection than vehicle
same,tolerability,"Pseudomonas aeruginosa; WT C57BL/6J mice, 1 or 5 mg/kg BID oral, 10 days",well tolerated
same,white blood cells,"Pseudomonas aeruginosa; all groups, day 10, compared to controls",normalized
same,levels of neutrophils,Pseudomonas aeruginosa; all treatment groups relative to the non-treated control,elevated levels of neutrophils
same,levels of lymphocytes or eosinophils,Pseudomonas aeruginosa; any of the groups,no significant difference
same,alveolar macrophages,"Pseudomonas aeruginosa; treatment groups, by day 10",increase in alveolar macrophages
same,neutrophils,"Pseudomonas aeruginosa; treatment groups, by day 10",decreased neutrophils
same,"Acute pulmonary exacerbations requiring a new antibiotic, Subjects","[1]; 1 mg, N = 22, Weeks 1-4, placebo 6 (25.0)",3 (13.6) n/N at risk (%)
same,"Acute pulmonary exacerbations requiring intravenous antibiotics, Subjects","[1]; 1 mg, Weeks 1-4, placebo 3 (8.6)",1 (3.8) n (% at risk)
same,acute pulmonary exacerbations requiring any new antibiotic,[1]; [2],Reductions were also observed
same,acute pulmonary exacerbations requiring intravenous antibiotics,[1]; [2],Reductions were also observed
same,"Acute pulmonary exacerbations requiring a new antibiotic, Subjects","[1]; 5 mg, N = 23, Weeks 1-4, placebo 6 (25.0)",3 (13.0) n/N at risk (%)
same,"Acute pulmonary exacerbations requiring intravenous antibiotics, Subjects","[1]; 5 mg, Weeks 1-4, placebo 3 (8.6)",1 (4.2) n (% at risk)
same,"Acute pulmonary exacerbations requiring a new antibiotic, Subjects","[1]; 20 mg BID, N = 22, Post-treatment, placebo 2 (22.2)",2 (9.1) n/N at risk (%)
same,"Acute pulmonary exacerbations requiring a new antibiotic, Subjects","[1]; 20 mg BID, N = 24, Weeks 5-12, placebo 9 (50.0)",2 (8.3) n/N at risk (%)
same,"Acute pulmonary exacerbations requiring intravenous antibiotics, Subjects","[1]; 20 mg BID, Weeks 5-12, placebo 3 (16.7)",1 (3.3) n (% at risk)
same,reduction in the 48 week rate of acute pulmonary exacerbations requiring any new antibiotic,"[1]; 20 mg BID, compared to placebo",82%
same,reduction in the 48 week rate of acute pulmonary exacerbations requiring intravenous antibiotics,"[1]; 20 mg BID, compared to placebo",75%
same,"Acute pulmonary exacerbations requiring a new antibiotic, Subjects","[1]; 20 mg, N = 20, Post-treatment, placebo 2 (22.2)",6 (30.0) n/N at risk (%)
same,"Acute pulmonary exacerbations requiring a new antibiotic, Subjects","[1]; 20 mg, N = 25, Weeks 5-12, placebo 9 (50.0)",4 (16.0) n/N at risk (%)
same,"Acute pulmonary exacerbations requiring intravenous antibiotics, Subjects","[1]; 20 mg, Weeks 5-12, placebo 3 (16.7)",3 (6.5) n (% at risk)
same,subjects withdrawn due to adverse events,"[1]; 85 subjects dosed, 2 on placebo",3 subjects
same,occurrence of acute pulmonary exacerbations requiring treatment with any new antibiotic,[1]; [3],dose-dependent decrease
same,occurrence of acute pulmonary exacerbations requiring treatment with intravenous antibiotics,[1]; [3],dose-dependent decrease
same,related serious or severe treatment emergent adverse events,"[1]; adults with cystic fibrosis, 1-20 mg BID, 84 days",No related serious or severe treatment emergent adverse events
